Reference: US12419873B2, “Use of JAK inhibitors in preparation of drugs for treating JAK kinase-related diseases” (ZHUHAI UNITED LABORATORIES CO., LTD., priority 2020, dated 2025)

Key:
JAK2 = JAK2 (Homo sapiens (Human), UniProt O60674); test: In vitro activity test of JAK2 kinase; details: read-out: JAK2 (IC50)
TYK2 = TYK2 (Homo sapiens (Human), UniProt P29597); test: In vitro activity test of TYK2 kinase; assay type: biochemical
Protocol: (§1) Recombinant human JAK1, JAK2, JAK3, TyK2 protease, main instruments and reagents were provided by Eurofins in the UK
(§2) All compounds were prepared into a 100% DMSO solution and reached 50 times the final determined concentration. The test compound was diluted by 3 times the concentration gradient, and the final concentration was 10 μM to 0.001 μM, 9 concentrations in total, and the content of DMSO in the detection reaction was 2%. The working stock solution of the compound was added to a determination hole as the first component of the reaction, and then the remaining components were added according to the detailed scheme determination below.
(§3) Mg/ATP mixture was added to start the reaction. After incubation at room temperature for 40 minutes, 0.5% phosphoric acid was added to stop the reaction.

JAK3 = JAK3 (Homo sapiens (Human), UniProt P52333); test: In vitro activity test of JAK3 kinase; assay type: biochemical
Protocol: as §1, §2, §3

JAK1 = JAK1 (Homo sapiens (Human), UniProt P23458); test: In vitro activity test of JAK1 kinase; assay type: biochemical
Protocol: as §1, §2, §3

Chain of JAK1 (P23458 whole entry): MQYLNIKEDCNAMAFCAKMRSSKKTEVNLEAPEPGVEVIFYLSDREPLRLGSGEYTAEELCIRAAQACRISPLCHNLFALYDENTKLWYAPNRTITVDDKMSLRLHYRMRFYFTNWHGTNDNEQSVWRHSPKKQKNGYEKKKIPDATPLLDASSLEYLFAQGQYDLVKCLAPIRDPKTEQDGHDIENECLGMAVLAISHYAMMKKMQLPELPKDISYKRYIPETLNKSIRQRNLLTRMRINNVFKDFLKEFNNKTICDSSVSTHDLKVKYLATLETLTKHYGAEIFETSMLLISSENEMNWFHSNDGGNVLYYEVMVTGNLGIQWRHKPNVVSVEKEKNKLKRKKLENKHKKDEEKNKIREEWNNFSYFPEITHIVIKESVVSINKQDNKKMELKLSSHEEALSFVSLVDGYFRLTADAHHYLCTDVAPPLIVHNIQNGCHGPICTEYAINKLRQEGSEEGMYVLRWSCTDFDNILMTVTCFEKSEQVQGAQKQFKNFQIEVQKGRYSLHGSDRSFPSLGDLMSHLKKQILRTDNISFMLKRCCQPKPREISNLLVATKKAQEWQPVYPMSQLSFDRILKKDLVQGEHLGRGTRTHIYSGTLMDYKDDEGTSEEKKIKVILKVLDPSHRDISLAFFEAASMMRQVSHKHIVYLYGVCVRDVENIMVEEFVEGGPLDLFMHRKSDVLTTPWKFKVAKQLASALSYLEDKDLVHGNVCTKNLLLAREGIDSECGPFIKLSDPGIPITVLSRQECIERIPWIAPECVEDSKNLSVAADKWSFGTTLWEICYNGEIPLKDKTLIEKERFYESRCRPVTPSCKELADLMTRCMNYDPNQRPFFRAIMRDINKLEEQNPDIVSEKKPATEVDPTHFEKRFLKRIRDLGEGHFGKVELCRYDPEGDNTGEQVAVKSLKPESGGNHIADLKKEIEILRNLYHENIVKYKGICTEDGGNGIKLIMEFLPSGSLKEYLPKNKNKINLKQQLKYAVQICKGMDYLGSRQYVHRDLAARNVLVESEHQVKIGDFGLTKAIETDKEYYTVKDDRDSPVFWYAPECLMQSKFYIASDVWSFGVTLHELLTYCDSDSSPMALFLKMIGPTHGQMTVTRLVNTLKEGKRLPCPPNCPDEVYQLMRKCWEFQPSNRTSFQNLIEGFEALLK
Chain of TYK2 (P29597 whole entry): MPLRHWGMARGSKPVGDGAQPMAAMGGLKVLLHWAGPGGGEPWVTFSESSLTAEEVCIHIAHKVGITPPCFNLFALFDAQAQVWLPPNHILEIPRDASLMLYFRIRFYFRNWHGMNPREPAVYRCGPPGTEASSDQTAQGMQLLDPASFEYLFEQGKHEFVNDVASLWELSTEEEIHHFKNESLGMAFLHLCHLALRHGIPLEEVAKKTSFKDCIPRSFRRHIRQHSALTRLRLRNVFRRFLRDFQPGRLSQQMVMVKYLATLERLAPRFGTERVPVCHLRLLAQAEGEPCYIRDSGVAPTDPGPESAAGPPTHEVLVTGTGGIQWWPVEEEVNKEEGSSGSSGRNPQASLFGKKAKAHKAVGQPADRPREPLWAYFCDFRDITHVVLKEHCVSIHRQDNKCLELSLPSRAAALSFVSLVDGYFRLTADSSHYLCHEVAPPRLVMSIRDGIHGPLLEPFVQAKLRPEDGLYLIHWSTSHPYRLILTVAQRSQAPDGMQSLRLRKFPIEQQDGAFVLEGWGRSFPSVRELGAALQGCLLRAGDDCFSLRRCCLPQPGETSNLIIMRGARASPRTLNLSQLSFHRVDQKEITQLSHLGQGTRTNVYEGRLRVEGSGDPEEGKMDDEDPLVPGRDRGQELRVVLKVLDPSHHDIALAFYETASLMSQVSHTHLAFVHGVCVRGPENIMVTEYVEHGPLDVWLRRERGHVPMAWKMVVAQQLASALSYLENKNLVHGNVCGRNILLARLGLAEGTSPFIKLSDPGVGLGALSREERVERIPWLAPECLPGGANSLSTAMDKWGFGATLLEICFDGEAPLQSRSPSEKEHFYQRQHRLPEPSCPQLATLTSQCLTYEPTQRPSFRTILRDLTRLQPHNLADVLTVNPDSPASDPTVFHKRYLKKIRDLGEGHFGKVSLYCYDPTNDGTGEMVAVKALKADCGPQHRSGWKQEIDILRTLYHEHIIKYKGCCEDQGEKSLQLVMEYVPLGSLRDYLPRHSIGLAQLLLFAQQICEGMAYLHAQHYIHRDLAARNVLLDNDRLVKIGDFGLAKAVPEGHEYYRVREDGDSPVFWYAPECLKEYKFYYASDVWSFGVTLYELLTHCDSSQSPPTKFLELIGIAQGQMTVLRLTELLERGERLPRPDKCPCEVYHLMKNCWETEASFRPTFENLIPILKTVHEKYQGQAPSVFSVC
Chain of JAK2 (O60674 whole entry): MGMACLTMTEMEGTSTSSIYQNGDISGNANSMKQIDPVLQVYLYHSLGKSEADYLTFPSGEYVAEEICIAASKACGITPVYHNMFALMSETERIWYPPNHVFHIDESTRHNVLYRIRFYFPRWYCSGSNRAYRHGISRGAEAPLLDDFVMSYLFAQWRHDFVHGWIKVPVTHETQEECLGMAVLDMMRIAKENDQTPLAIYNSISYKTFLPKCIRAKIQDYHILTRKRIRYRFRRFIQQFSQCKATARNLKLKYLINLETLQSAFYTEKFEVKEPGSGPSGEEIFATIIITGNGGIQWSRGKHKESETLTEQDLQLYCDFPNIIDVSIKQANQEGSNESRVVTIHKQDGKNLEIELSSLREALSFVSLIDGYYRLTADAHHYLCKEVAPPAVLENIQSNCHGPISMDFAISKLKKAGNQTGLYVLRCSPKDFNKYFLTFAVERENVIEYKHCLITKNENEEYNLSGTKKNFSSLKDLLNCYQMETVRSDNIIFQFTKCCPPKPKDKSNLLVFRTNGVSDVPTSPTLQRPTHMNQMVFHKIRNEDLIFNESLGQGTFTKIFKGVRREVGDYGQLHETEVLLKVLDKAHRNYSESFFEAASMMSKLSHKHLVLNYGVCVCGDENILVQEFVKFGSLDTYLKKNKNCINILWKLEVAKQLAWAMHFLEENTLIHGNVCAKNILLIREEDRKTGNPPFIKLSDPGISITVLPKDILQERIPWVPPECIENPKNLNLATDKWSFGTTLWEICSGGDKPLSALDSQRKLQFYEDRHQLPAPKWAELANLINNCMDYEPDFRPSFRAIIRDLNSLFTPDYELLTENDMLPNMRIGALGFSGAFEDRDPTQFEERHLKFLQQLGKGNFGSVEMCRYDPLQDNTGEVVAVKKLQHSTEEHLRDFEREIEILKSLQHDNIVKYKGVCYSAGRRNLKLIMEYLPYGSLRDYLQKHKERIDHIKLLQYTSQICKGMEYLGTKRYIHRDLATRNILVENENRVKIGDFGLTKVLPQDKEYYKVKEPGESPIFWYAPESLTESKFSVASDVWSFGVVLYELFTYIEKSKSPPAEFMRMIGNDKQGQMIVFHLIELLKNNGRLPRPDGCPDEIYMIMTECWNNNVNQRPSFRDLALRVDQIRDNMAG
Chain of JAK3 (P52333 whole entry): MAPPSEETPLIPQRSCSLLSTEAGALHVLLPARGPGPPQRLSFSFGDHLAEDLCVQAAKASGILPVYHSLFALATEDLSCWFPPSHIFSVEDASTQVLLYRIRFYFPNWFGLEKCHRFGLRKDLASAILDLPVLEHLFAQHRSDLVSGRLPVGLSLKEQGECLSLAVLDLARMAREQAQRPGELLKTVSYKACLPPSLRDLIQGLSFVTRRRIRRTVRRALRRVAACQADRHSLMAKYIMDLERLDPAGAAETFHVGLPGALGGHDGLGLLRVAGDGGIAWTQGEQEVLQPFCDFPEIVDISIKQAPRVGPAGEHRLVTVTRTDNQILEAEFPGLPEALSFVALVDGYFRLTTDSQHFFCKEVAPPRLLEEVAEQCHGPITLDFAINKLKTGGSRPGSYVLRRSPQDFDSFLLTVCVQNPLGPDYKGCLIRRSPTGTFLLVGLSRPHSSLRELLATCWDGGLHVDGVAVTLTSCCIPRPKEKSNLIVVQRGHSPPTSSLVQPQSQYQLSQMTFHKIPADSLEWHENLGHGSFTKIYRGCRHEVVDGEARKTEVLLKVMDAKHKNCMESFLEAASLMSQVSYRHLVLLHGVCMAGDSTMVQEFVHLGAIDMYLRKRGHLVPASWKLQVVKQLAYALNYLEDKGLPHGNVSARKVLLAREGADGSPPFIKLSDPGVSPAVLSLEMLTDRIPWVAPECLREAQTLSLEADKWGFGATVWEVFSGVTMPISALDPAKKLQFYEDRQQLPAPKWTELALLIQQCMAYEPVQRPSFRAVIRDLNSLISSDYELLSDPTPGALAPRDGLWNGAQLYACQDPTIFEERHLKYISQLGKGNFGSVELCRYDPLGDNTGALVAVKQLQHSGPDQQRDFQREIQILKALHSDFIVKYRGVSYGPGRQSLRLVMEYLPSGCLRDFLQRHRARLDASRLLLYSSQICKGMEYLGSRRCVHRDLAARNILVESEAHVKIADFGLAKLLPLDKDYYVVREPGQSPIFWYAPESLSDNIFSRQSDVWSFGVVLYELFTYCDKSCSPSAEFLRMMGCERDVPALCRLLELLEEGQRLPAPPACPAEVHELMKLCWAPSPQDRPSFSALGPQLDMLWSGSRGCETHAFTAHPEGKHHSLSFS

Row | SMILES | IC50 (JAK2) [nM] | IC50 (TYK2) [nM] | IC50 (JAK3) [nM] | IC50 (JAK1) [nM]
1 | O=C(Nc1nc2cccc([C@H]3CCC4(CCN(C(=O)[C@@H]5CC5(F)F)CC4)C3)n2n1)C1CC1 (single isomer, unassigned) [Compound 6-7] | 998 | 829 | 9390 | 63
2 | O=C(Nc1nc2cccc([C@@H]3CCC4(CCN(C(=O)[C@@H]5CC5(F)F)CC4)C3)n2n1)C1CC1 (single isomer, unassigned) [Compound 6-8] | 1920 | 570 | > 10000 | 381
3 | N#CCC(=O)N1CC2(CCC(F)(c3cccc4nc(NC(=O)C5CC5)nn34)CC2)C1 [Compound 4-6] | 2010 | 307 | 8450 | 170
4 | O=C(Nc1nc2cccc(C3CCC4(CC3)CN(C(=O)[C@H]3CC3(F)F)C4)n2n1)[C@H]1CC1(F)F [Compound 8-6] | 110 | 127 | 7640 | 14
5 | N#CCN1CC2(CCC(c3cccc4nc(NC(=O)[C@H]5CC5(F)F)nn34)CC2)C1 [Compound 8-9] | 3670 | 1330 | > 10000 | 52
6 | N#CCN1CC2(CCC(c3cccc4nc(NC(=O)[C@@H]5CC5(F)F)nn34)CC2)C1 [Compound 9-6] | 1170 | 1390 | > 10000 | 432
